The text below walks through data of US8653304B2, “2,3-dihydro-1H-indene-2-yl urea derivative and pharmaceutical application of same” (Toray Industries, Inc., priority 2009, dated 2014).

One series addresses human p38 MAPK α (Homo sapiens (Human), UniProt Q16539). The series is described as follows: Evaluation of p38 MAPK inhibitory activity (Alpha Screen, ATF2 phosphorylation). The series is classed as biochemical. The settings on record: p38α/SAPK2a 1.5 nM, ATP 100 μM, biotinylated ATF2 30 nM. Here is the method: Using human p38 MAPK α, the p38 MAPK inhibitory activity of Compound (I) was studied by a method partially modified from the method described in Current Medicinal Chemistry (2004, No. 11, pp. 721-730).
A solution of each test compound solution in 100% DMSO and a p38α/SAPK2a solution (Final Concentration: 1.5 nM) (Invitrogen) were added to a 384-well plate, and then the plate was incubated at room temperature in a dark place for 1 hour. Thereafter, ATP (Final Concentration: 100 μM), which is a phosphate donor, and biotinylated ATF2 (Final Concentration: 30 nM) (upstate), which is a substrate, were added, and the resulting mixture was allowed to react at room temperature in a dark place for 1 hour (the final concentration of DMSO was 0.25%). After the reaction, an anti-phosphorylated ATF2 antibody (Final Concentration: 1 nM) (Cell Signaling), anti-IgG acceptor beads (Final Concentration: 20 μg/mL) (PerkinElmer) and streptavidin donor beads (Final Concentration: 20 μg/mL) (PerkinElmer) were added, and the resultant was incubated at room temperature in a dark place for 1 hour. Using a microplate analyzer (Fusion-α, Packard) in Alpha Screen method (Amplified Luminescent Proximity Homogeneous Assay), the light emission was detected. The IC50 value of each compound was calculated by sigmoidal dose-response regression using Prism 4.02 (GraphPad Software, Inc.).

For another series, the system named is TNFα production. The experiment in a line: Mouse LPS-induced cytokine production model. The settings on record: BALB/c mouse, 50 mg/kg oral 30 minutes before LPS 1 mg/kg i.p., serum 60 minutes after LPS. The series is classed as in vivo. Here is the method: The action of Compound (I) on the TNFα production induced by LPS administration in a mouse was studied by a method partially modified from the method described in Journal of Immunology (1992, Vol. 148, pp. 1890-1897).
To each BALB/c mouse (male, 7 to 9-week old, Charles River Laboratories Japan, Inc.), LPS (0111:B4, SIGMA) was intraperitoneally administered at a dose of 1 mg/kg. Sixty minutes after the LPS administration, blood was collected from the abdominal vena cava under anesthesia and centrifuged for 15 minutes at 4° C. to obtain a serum. For the measurement of TNF-α in the serum, ELISA Development System (R&D Systems) was used. Each test compound was dissolved in DMSO (Final Concentration: 2%), and then the obtained solution was dissolved in a 27% aqueous solution of 2-hydroxypropyl-β-cyclodextrin (hereinafter referred to as “HP-β-CD”; Nihon Shokuhin Kako Co., Ltd.). Thirty minutes before the LPS administration, the resulting solution was orally administered at 50 mg/kg.

Series [1] is described as follows: Metabolic stability in human CYP (human liver microsomes). Type of series: in vitro ADME. The settings on record: human liver microsomes 0.5 mg/mL, NADPH, 37° C., compound 2 μM. The procedure: Each test compound was mixed at a concentration of 2 μM with a phosphate buffer solution containing Human liver microsomes (Xenotech) in an amount of 0.5 mg/mL. Thereafter, NADPH was added thereto, and the obtained mixture was allowed to react at 37° C. for up to 30 minutes. The reaction was terminated by adding acetonitrile, and then the resultant was centrifuged for 10 minutes at 4° C. to collect a supernatant. The supernatant was pretreated by methanol extraction method, and the concentration of the compound was analyzed by LC/MS/MS (ESI positive mode). The compound remaining rate was calculated from the obtained concentration of the compound.

The next series relates to HepG2 cells. The series is described as follows: Ability to induce drug-induced phospholipidosis (HepG2, HCS Lipid TOX Green). The series is classed as cell-based, human. The settings on record: 48 hours. Here is the method: Whether an ability to induce phospholipidosis by Compound (I) was observed or not was studied. The evaluation of Compound 46b described in the Examples was carried out by a method partially modified from the method described in Experimental and Toxicologic Pathology (2007, Vol. 58, pp. 375-382).
Each test compound and HCS Lipid TOX Green Phospholipidosis Detection Regent (Invitrogen), which is a phospholipid staining solution, were mixed with HepG2 cells, which are a cell line derived from human hepatoma, and the cells were cultured in the presence of 5% CO2 at 37° C. for 48 hours. The culture supernatant after the culturing was removed, and Hoechest 33258 (Invitrogen), which is a nucleic acid staining solution, was added, followed by allowing the resulting mixture to react in the dark at room temperature for 20 minutes. The resultant was washed with PBS solution. Then the fluorescence intensity was measured with a microplate analyzer (Fusion-α, Packard), and FLA (a relative value when taking amiodarone hydrochloride (10 μM) as 1, the amiodarone hydrochloride being a positive control substance) was calculated according to the following equations. The case where FLA was less than 1 was judged as negative, and the case where FLA was not less than 1 was judged as positive. […]

Series [2] relates to skin swelling response in type IV allergic dermatitis model. The experiment in a line: Skin swelling response in type IV allergic dermatitis model. The series is classed as in vivo. Conditions: BALB/c mouse, 24 hours after induction. Here is the method: The action of Compound (I) on skin swelling response in mouse allergic dermatitis models was studied. As the allergic dermatitis models, models partially modified from a type I allergic dermatitis model and a type IV allergic dermatitis model described in documents (Inflamm. Res., 1998, Vol. 47, pp. 506-511 and Int. Arch. Allergy. Appl. Immunol., 1990, Vol. 92, pp. 356-360) were used.
To the back of each BALB/c mouse (female, 7-week old, Charles River Laboratories Japan, Inc.), 25 μL of 0.5% DNFB solution dissolved in acetone:olive oil (4:1) was applied. On the next day, the same operations were repeated to actively sensitize the mouse. Four days after the sensitization, 20 μL of 0.2% DNFB solution dissolved in acetone:olive oil (4:1) was applied to the auricle of the sensitized mouse to induce inflammation. Twenty four hours after the induction, the thickness of the auricle was measured using a Digimatic Indicator (Mitutoyo). Each test compound was dissolved in ethanol and 20 μL of 0.5 w/v % solution was applied to the auricle at 1 hour before the induction; or each test compound was suspended in 0.5% methylcellulose (Wako Pure Chemical Industries, Ltd.) and the resulting solution was orally administered at 30 mg/kg at 1 hour before the induction. The swelling ratio of the auricle was calculated according to the following equation: Auricular Swelling Ratio(%)=(A−B)/B×100

Sequence of human p38 MAPK α (Q16539 whole entry): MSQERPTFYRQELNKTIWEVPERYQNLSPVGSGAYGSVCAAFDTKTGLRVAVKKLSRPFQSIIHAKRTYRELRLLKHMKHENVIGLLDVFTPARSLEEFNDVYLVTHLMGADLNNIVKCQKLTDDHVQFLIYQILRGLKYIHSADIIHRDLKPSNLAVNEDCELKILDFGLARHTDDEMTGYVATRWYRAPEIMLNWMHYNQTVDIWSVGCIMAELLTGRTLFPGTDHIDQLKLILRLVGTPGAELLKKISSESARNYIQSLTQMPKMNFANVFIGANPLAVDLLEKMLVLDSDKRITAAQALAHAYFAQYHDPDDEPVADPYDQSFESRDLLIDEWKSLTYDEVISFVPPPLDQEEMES

Usually IC50 stands for the concentration needed to halve the response being measured. The low end stands for inhibition by little substance, the high end for a need for much substance. As a reminder, the microsomal CLint is the capacity of the preparation to metabolise the compound, expressed as a volume cleared per time. The low end stands for greater metabolic stability, the high end for faster metabolism. `COc1c(NC(=O)N[C@@H]2Cc3ccccc3[C@@H]2O)cc(C(C)(C)C)cc1[C@@H](O)C(F)(F)F` [Compound 46b, 1-(5-tert-butyl-2-methoxy-3-((R)-2,2,2-trifluoro-1-hydroxyethyl)phenyl)-3-((1S,2R)-1-hydroxy-2,3-dihydro-1H-indene-2-yl)urea] came in with an IC50 on human p38 MAPK α of 15 nM. In the series with TNFα production, the “Suppression Ratio of TNFα production” value was found to be 100.0%. In series [1], this compound gave a microsomal CLint at 2 μM of 94 µL/min/mg. Besides, the “FLA value (relative to amiodarone hydrochloride 10 μM as 1)” value with HepG2 cells (concentration up to 10 μM) was “less than 1”. In the series on HepG2 cells (up to 10 μM, FLA less than 1 = negative), the phospholipidosis judgement entry is “negative”. In addition, in series [2] (30 mg/kg oral 1 hour before induction), the “suppression ratio of auricular swelling, oral administration” value is recorded as 37.7%. In series [2] (20 μL of 0.5 w/v % solution on auricle 1 hour before induction), the “suppression ratio of auricular swelling, auricular application” value is 49.2%.
